What is called melting point is the temperature, or range, at which the solid turns liquid.

Where two headings read alike, the source gives them in different places.

Data set [1] has as its system NHEK-Ad primary human adult keratinocyte line. Description: Secondary assay: cell proliferation WST-1, NHEK-Ad. Type of data set: cell-based. The note with it: 48 h, read-out: Cell Proliferation Inhibition WST-1 (IC50 unless otherwise specified) NHEK-AD. Here is the method:
Compounds with HDAC inhibition activity, as determined using the primary assay, were subsequently evaluated using secondary cell-based assays. The following cell lines were used:
NHEK-Ad—Primary human adult keratinocyte line (Cambrex Corp., East Rutherford, N.J., USA).
Cells were plated in 96-well plates at 3-10×10^3 cells/well in 100 μL of culture medium. The following day, different concentrations of candidate compounds were added and the cells incubated at 37° C. for 48 h. Subsequently, 10 μL/well of WST-1 reagent was added and the cells reincubated for 1 hour. After the incubation time, absorbance was measured.
WST-1 is a tetrazolium salt which is cleaved to formazan dye by cellular enzymes. An expansion in the number of viable cells results in an increase in the overall activity of mitochondrial dehydrogenases in the sample. This augmentation in the enzyme activity leads to an increase in the amount of formazan dye formed, which directly correlates to the number of metabolically active cells in the culture. The formazan dye produced is quantified by a scanning multiwell spectrophotometer by measuring the absorbance of the dye solution at 450 nm wavelength (reference wavelength 690 nm).
Percent activity (% activity) in reducing the number of viable cells was calculated for each test compound as: % activity={(S^C−B)/(S^o−B)}×100 wherein S^C denotes signal measured in the presence of the compound being tested, S^o denotes signal measured in the absence of the compound being tested, and B denotes the background signal measured in blank wells containing medium only.
IC50 values were calculated using the software package Prism 3.0 (GraphPad software Inc., San Diego, Calif.), setting top value at 100 and bottom value at 0.
In general terms: Tetrazolium assays rely on reduction of a dye to a coloured formazan, in cell work by metabolically active cells.

Data set [2] deals with K11 HPV E7 transformed human keratinocyte line. Description: Secondary assay: cell proliferation WST-1, K11. The format is cell-based. The note with it: read-out: Cell Proliferation Inhibition WST-1 (IC50 unless otherwise specified) K11.
Data set [3] relates to JURKAT human T-cell line. The data set can be described thus: Secondary assay: cell proliferation WST-1, Jurkat. Type of data set: cell-based. Particulars: 48 h, read-out: Cell Proliferation Inhibition WST-1 (IC50 unless otherwise specified) Jurkat.
Data set [4] deals with HeLa cells. Description: Secondary assay: cell proliferation WST-1, HeLa. Type of data set: cell-based. The note with it: Homo sapiens, 48 h, read-out: Cell Proliferation Inhibition WST-1 (IC50 unless otherwise specified) HeLa. In short, it runs like this: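 Absorbance at 450 nm (reference 690 nm); % activity vs untreated after blank subtraction, IC50 fitted with top 100 and bottom 0.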

Data set [5] deals with HDAC (HeLa cell extract). The data set can be described thus: Primary assay: deacetylase activity, HeLa cell extract as source of HDAC. The format is biochemical, human. The note with it: read-out: HDAC Inhibition (IC50 unless otherwise specified) HeLa. In short, it runs like this: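 Crude HeLa extract (freeze-thaw in 60 mM TrisCl pH 8.0, 450 mM NaCl, 30% glycerol) was incubated 1 h at 37° C with a [³H]acetyl-labelled histone H4 N-terminal peptide in 20 mM Tris pH 7.4, 10% glycerol.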

Data set [6] concerns the target T1, human HDAC2 (Homo sapiens, UniProt Q92769).
T1 construct: Full length human HDAC2 was subcloned; Flag (C); His6 (from pAcHLT-A vector; purified on Ni-NTA) (N); made in house; host or cells: SF9 insect cells (baculovirus)
The data set can be described thus: Primary assay: deacetylase activity, recombinantly produced HDAC2. Type of data set: biochemical. Particulars: recombinant HDAC2; read-out: HDAC Inhibition (IC50 unless otherwise specified) HDAC2. From the text: (§1) Briefly, this assay relies on the release of radioactive acetate from a radioactively labelled histone fragment by the action of HDAC enzyme. Test compounds, which inhibit HDAC, reduce the yield of radioactive acetate. Signal (e.g., scintillation counts) measured in the presence and absence of a test compound provide an indication of that compound's ability to inhibit HDAC activity. Decreased activity indicates increased inhibition by the test compound.
(§2) The histone fragment was an N-terminal sequence from histone H4, and it was labelled with radioactively labelled acetyl groups using tritiated acetylcoenzyme A (coA) in conjunction with an enzyme which is the histone acetyltransferase domain of the transcriptional coactivator p300. […] The acetylated peptide was then separated from free acetyl coA by size exclusion chromatography on Sephadex G-15 (Sigma G-15-120), using distilled H2O as the mobile phase.
(§3) After purification of the radiolabelled histone fragment, it was incubated with a source of HDAC (e.g., an extract of HeLa cells (a rich source of HDAC), recombinantly produced HDAC1 or HDAC2) and any released acetate was extracted into an organic phase and quantitatively determined using scintillation counting. By including a test compound with the source of HDAC, that compound's ability to inhibit the HDAC was determined.
(§4) Amplification of recombinant viruses was performed according to the Pharmingen Instruction Manual.
(§5) For protein production, 2×10^7 cells were infected with the appropriate recombinant virus for 3 days. Cells were then harvested and spun at 3,000 rpm for 5 minutes. They were then washed twice in PBS and resuspended in 2 pellet volumes of lysis buffer (25 mM HEPES pH 7.9, 0.1 mM EDTA, 400 mM KCl, 10% glycerol, 0.1% NP-40, 1 mM AEBSF). Resuspended cells were frozen on dry ice and thawed at 37° C. 3 times and centrifuged for 10 minutes at 14,000 rpm. […] Incubation was carried out at 4° C. for 1 hour on a rotating wheel. The slurry was then centrifuged at 500 g for 5 minutes. Beads were washed twice in 1 ml of wash buffer (25 mM HEPES pH7.9, 0.1 mM EDTA, 150 mM KCl, 10% glycerol, 0.1% NP-40, 1 mM AEBSF). Protein was eluted 3 times in 300 μl elution buffer (25 mM HEPES pH 7.9, 0.1 mM EDTA, 250 mM KCl, 10% glycerol, 0.1% NP-40, 1 mM AEBSF) containing increasing concentrations of imidazole: 0.2 M, 0.5 M and 1 M. Each elution was performed for 5 minutes at room temperature. Eluted protein was kept in 50% glycerol at −70° C.
(§6) A source of HDAC (e.g., 2 μL of crude HeLa extract, 5 μL of HDAC1 or HDAC2; in elution buffer, as above) was incubated with 3 μL of radioactively labelled peptide along with appropriate dilutions of candidate compounds (1.5 μL) in a total volume of 150 μL of buffer (20 mM Tris pH 7.4, 10% glycerol). The reaction was carried out at 37° C. for one hour, after which the reaction was stopped by adding 20 μL of 1 M HCl/0.4 M sodium acetate. […] Radioactivity was measured using a Tri-Carb 2100TR Liquid Scintillation Analyzer (Packard).
(§7) Percent activity (% activity) for each test compound was calculated as: % activity={(S^C−B)/(S^o−B)}×100 wherein S^C denotes signal measured in the presence of enzyme and the compound being tested, S^o denotes signal measured in the presence of enzyme but in the absence of the compound being tested, and B denotes the background signal measured in the absence of both enzyme and compound being tested.

The target of data set [7] is T2, human HDAC1 (Homo sapiens, UniProt Q13547).
T2 construct: Full length human HDAC1 was cloned by PCR; Flag (C); His6 (from pAcHLT vector; purified on Ni-NTA) (N); made in house; host or cells: SF9 insect cells (baculovirus)
T2 sequence (Q13547 whole entry): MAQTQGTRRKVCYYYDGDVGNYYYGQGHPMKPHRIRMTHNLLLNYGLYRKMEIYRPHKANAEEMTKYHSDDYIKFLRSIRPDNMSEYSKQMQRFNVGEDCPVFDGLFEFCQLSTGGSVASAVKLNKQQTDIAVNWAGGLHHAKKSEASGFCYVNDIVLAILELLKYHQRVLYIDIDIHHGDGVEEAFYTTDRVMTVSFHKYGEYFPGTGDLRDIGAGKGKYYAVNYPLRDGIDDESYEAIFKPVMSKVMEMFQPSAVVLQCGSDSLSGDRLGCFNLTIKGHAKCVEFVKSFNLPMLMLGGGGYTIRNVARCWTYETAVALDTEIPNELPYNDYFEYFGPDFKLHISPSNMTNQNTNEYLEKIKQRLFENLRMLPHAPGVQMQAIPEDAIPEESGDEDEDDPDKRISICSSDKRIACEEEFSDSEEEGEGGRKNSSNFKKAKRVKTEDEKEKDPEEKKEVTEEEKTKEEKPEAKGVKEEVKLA
Description: Primary assay: deacetylase activity, recombinantly produced HDAC1. The format is biochemical. The note with it: recombinant HDAC1; read-out: HDAC Inhibition (IC50 unless otherwise specified) HDAC1.
Excerpt: as §1, §2, §3
Full length human HDAC1 was cloned by PCR using a λgt11 Jurkat cDNA library (Clontech-HL5012b). The amplified fragment was inserted into the EcoRI-Sall sites of pFlag-CTC vector (Sigma-E5394), in frame with the Flag tag. A second PCR was carried out in order to amplify a fragment containing the HDAC1 sequence fused to the Flag tag.
as §4, §5, §6, §7

[8] abbreviates: Homo sapiens, Keratinocyte, 48 h.
Setting [9] is: Homo sapiens, Keratinocyte, NHEK-AD.

T1 sequence (Q92769 whole entry): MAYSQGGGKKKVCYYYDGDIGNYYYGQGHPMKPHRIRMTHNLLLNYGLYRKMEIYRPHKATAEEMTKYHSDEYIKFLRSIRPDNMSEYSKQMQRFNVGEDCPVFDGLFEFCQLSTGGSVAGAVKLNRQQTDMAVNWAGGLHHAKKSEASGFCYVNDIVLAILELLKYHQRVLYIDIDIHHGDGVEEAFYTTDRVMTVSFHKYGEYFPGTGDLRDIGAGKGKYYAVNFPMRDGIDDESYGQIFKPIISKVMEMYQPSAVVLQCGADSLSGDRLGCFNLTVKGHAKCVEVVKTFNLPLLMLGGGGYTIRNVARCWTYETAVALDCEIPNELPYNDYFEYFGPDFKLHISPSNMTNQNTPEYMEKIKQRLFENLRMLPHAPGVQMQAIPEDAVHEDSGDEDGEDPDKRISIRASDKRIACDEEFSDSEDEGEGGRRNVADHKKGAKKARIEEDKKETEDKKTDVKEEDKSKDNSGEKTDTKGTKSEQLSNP

Regarding `Nc1ccccc1NC(=O)c1ccc(CNC(=O)OCc2cccnc2)cc1` [MS-275, reference compound], the IC50 in data set [1] (NHEK-AD) was found to be 3100 nM; in data set [2] (K11, 48 h) it was 9160 nM; in data set [3] it was 365 nM.

For the compound `O=C(/C=C/C#Cc1cccc(NS(=O)(=O)c2ccccc2)c1)NO` [Oxamflatin, (2E)-5-[3-[(phenylsulfonyl)amino]phenyl]-pent-2-en-4-ynohydroxamic acid, reference compound], the IC50 in data set [4] was 1100 nM; in data set [1] (Homo sapiens, Keratinocyte), 3530 nM; in data set [2] (setting [8]) it was 4560 nM; in data set [3] (Homo sapiens), 260 nM.

Turning to `O=C(CCCCCCC(=O)Nc1ccc2ccccc2c1)NO` [PX116223, Octanedioic acid hydroxyamide naphthalen-2-ylamide], the melting point lay within 142.5 to 144 °C. The IC50 in data set [4] was under 310 nM. In data set [1] (setting [9]), the IC50 came out at 1300 nM. In addition, the IC50 in data set [2] (setting [8]) was found to be 1700 nM. Further, in data set [5] (HeLa cell extract), the IC50 was under 12.5 nM. Further, the IC50 in data set [3] (Homo sapiens) came to 220 nM.

`O=C(/C=C/C=C/c1ccccc1)NCCCCCC(=O)NO` [PX105553, 4-(2E)(4E)-5-Phenyl-penta-2,4-dienoic acid (5-hydroxycarbamoyl-pentyl)-amide]: the IC50 in data set [4] came to 5700 nM; in data set [1] (setting [9]) it was 2400 nM; in data set [6] it was 47 nM; in data set [2] (setting [8]), 7500 nM; in data set [7] it was 38 nM; in data set [5] (HeLa cell extract), 18 nM. Also, the IC50 in data set [3] (Homo sapiens) amounted to 3700 nM.

Consider `O=C(/C=C/c1ccc2ccccc2c1)NCCCCCC(=O)NO` [PX116232, E-N-(5-Hydroxycarbamoylpentyl)-3-naphthalen-2-yl-acrylamide], for which the IC50 stood at 18300 nM in data set [4]; 1700 nM in data set [1] (setting [9]); 2700 nM in data set [2] (setting [8]); 10 nM in data set [5] (HeLa cell extract); 7300 nM in data set [3] (Homo sapiens).

Regarding `O=C(C=C1c2ccccc2-c2ccccc21)NCCCCCC(=O)NO` [PX117456, 6-(2-Fluoren-9-ylideneacetylamino)hexanoic acid hydroxyamide], the IC50 amounted to 650 nM in data set [4]; 250 nM in data set [1] (Homo sapiens, Keratinocyte); 740 nM in data set [2] (setting [8]); 3 nM in data set [5]; 180 nM in data set [3] (Homo sapiens).

For `O=C(/C=C\C=C\c1ccc(Cl)cc1)NCCCCCC(=O)NO` [PX105849, (2Z,4E)-5-(4-Chlorophenyl)penta-2,4-dienoic acid (5-hydroxycarbamoylpentyl)-amide], the melting point is 158 to 160 °C. In addition, the IC50 in data set [4] is 5300 nM. The IC50 in data set [6] was found to be 63 nM. Moreover, the IC50 in data set [7] was 50 nM. Besides, in data set [5] (HeLa cell extract), the IC50 was determined as 29 nM.

In the case of `CC(/C=C/C(=O)NO)=C\[C@@H](C)C(=O)c1ccc(N(C)C)cc1` [TSA, trichostatin A, reference compound], the IC50 was determined as 350 nM in data set [4]; 200 nM in data set [1] (Homo sapiens, Keratinocyte); 380 nM in data set [2] (setting [8]); 42 nM in data set [3] (Homo sapiens).

Compound `O=C(/C=C/c1c[nH]c2ccccc12)NCCCCCC(=O)NO` [PX116220, N-(5-Hydroxycarbamoyl-pentyl)-3-(1-N-indol-3-yl)-acrylamide] registered a melting point of 92 to 94 °C. Besides, the IC50 in data set [4] is 3700 nM. Also, in data set [1] (setting [9]), the IC50 came out at 2400 nM. Further, the IC50 in data set [2] (setting [8]) was found to be 9500 nM. In addition, in data set [5] (HeLa cell extract), the IC50 turned out to be 6.3 nM. Further, in data set [3] (Homo sapiens), the IC50 came to 4500 nM.
